Reference: patent publication US20030220267A1, “Borinic acid protease inhibitors” (priority 2001, published 2003)
Read-outs that look alike come from different tables or passages of the source.

How the values were obtained:
[1] = target: chymotrypsin (Bos taurus, UniProt P00766); details: pH 7.5; cited from earlier work
[2] = target: T1, HIV-1 protease (Human immunodeficiency virus type 1 group M subtype B, UniProt P04585); assay: HIV-1 protease inhibition; type: biochemical, Human immunodeficiency virus 1; details: models such as those described by Pivazyan et al., Biochem. Pharma, 2000, 60, 927
T1 construct: Teach monomer is formed by 99 residues organized in β strands
From the text: The ability of a compound of the invention to act as an inhibitor of HIV-1 protease may be determined using pharmacological models which are well known to the art, such as tnose described by A. D. Pivazyan et al., Biochem. Pharma, 2000, 60, 927.

[3] = From the text: Furthermore, we attempted to separate the crude product on HPLC using a C18 reverse phase column and water/acetonitrile as the solvent. […] Using trifluoroacetic acid as part of the solvent mixture will acidify the media and might prevent decomposition.

Molecule	Ki [1] [nM]	inhibition of HIV-1 protease [2]	stability under HPLC conditions ([3]; C18 reverse phase column, water/acetonitrile, gradient separation, crude product)	stability in buffer solution ([3]; acidic and neutral media)	stability in buffer solution ([3]; basic conditions)
CC(=O)N[C@@H](Cc1ccccc1)B(O)O	2100	–	–	–	–
CC(=O)N[C@@H](Cc1ccccc1)B(O)CN1CCC[C@H]1C(N)=O [Compound I24, [(1R)-(1-Acetamido-2-phenylethyl)]-B-methylene-L-proline amide borinic acid]	–	inhibitors of HIV-1 protease	unstable	stable	quickly decomposes
[( 1R)-1-(Ac-Ser-Leu-Asn)-2-phenylethyl]-B-methylene-L-proline amide borinic acid [Compound I28a]	–	inhibitors of HIV-1 protease	–	–	–
[(1R)-1-(Ac-Thr-Leu-Asn)-2-phenylethyl]-B-methylene-L-proline amide borinic acid [Compound I28b]	–	inhibitors of HIV-1 protease	–	–	–
